Data: US20240116985A1, “STAPLED PEPTIDES AND METHODS THEREOF” (priority 2020, published 2024)
In brackets after ≈: the same amount, converted by molar mass. Read-outs that look alike come from different tables or passages of the source.

Legend:
CHI Log D procedure = assay type: physicochemical; conditions: for CHI Log D: pH 7.4; for chromatographic logD: pH 7.4, CHI Log D
[1] = molecular target: T1, full-length beta-Catenin (Uniprot ID P35222) (Homo sapiens, UniProt P35222); assay: Fluorescence polarization IC50 (beta-catenin / 5FAM-TCF4 10-53 competition); assay type: binding
T1 construct: 10 nM full-length beta-Catenin (Uniprot ID P35222)
T1 sequence (P35222 1-781): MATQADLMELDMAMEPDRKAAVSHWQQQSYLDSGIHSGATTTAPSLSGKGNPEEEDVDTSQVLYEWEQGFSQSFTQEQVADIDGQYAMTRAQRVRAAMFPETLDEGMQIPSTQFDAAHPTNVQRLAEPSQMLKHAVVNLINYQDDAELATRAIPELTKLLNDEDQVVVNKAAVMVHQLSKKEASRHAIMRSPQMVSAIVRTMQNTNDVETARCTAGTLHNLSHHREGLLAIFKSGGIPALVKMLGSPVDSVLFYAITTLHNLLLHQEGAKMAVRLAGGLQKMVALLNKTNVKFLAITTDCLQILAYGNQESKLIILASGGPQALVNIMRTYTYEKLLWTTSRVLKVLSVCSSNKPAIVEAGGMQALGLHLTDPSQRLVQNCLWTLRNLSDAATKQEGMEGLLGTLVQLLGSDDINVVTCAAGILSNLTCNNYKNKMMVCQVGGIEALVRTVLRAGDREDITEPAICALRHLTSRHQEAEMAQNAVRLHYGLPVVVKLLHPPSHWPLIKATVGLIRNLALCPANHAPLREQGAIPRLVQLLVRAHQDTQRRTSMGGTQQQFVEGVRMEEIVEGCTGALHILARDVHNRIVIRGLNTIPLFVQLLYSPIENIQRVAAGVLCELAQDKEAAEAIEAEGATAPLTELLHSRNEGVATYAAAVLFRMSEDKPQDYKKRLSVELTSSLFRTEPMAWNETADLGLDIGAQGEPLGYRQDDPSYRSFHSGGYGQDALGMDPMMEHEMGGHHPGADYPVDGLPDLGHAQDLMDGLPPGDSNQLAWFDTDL

Solubility in PBS = assay type: physicochemical
Procedure, shortened: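 Solubility is derived from HPLC peak areas: the ratio of the PBS supernatant peak to a 50 μM DMSO peptide peak, times 50 uM.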

[2] = fluorescence polarization, read-out: beta-Catenin FP IC50

Row | CHI Log D (CHI Log D procedure) | IC50 [1, 2] [nM] | IC50 ([1]; read-out: FP EC50) [nM] | Solubility (Solubility in PBS) [µM] | chromatographic logD (CHI Log D procedure) | Solubility (Solubility in PBS; Solubility (uM)) [µM] | SMILES
1 | 2.136 | 27 | 27 | 24 (≈ 44.1 µg/mL) |  |  | CC(=O)N1CCC[C@]12CC=CCCCC1(CCCC=CCCCCCC[C@@](C)(C(=O)N[C@@H](Cc3ccccc3)C(=O)N[C@@H](Cc3csc4ccccc34)C(=O)N[C@@H](Cc3c[nH]cn3)C(N)=O)NC(=O)[C@H](CC(N)=O)NC(=O)[C@H](Cc3ccccc3)NC(=O)[C@H](C)NC(=O)[C@H](C)NC(=O)[C@H](CCC(=O)O)NC(=O)[C@H](CC(=O)O)NC1=O)NC(=O)[C@H](C)NC(=O)[C@H](CC(=O)O)NC2=O (stereo partly drawn) [I-422, Ac-PL3-Asp-Ala-B5-Asp-Glu-Ala-Ala-Phe-Asn-S8-Phe-BztA-His-NH2]
2 |  | 105 |  |  | 2.09 | 48 (≈ 87.1 µg/mL) | CC(=O)N1CCC[C@]12CC=CCCCC1(CCCC=CCCCCCC[C@@](C)(C(=O)N[C@@H](Cc3ccccc3)C(=O)N[C@@H](Cc3csc4ccccc34)C(=O)N[C@@H](CCC(N)=O)C(N)=O)NC(=O)[C@H]([C@@H](C)O)NC(=O)[C@H](Cc3ccccc3)NC(=O)[C@H](C)NC(=O)[C@H](C)NC(=O)[C@H](CCC(=O)O)NC(=O)[C@H](CC(=O)O)NC1=O)NC(=O)[C@H](C)NC(=O)[C@H](CC(=O)O)NC2=O (stereo partly drawn) [I-423, Ac-PL3-Asp-Ala-B5-Asp-Glu-Ala-Ala-Phe-Thr-S8-Phe-BztA-Gln-NH2]
3 | 1.968 | 170 | 170 | 50 (≈ 91.4 µg/mL) |  |  | CC(=O)N1CCC[C@]12CC=CCCCC1(CCCC=CCCCCCC[C@@](C)(C(=O)N[C@@H](Cc3ccccc3)C(=O)N[C@@H](Cc3csc4ccccc34)C(=O)N[C@@H](CCC(N)=O)C(N)=O)NC(=O)[C@H](CC(N)=O)NC(=O)[C@H](Cc3ccccc3)NC(=O)[C@H](C)NC(=O)[C@H](C)NC(=O)[C@H](CCC(=O)O)NC(=O)[C@H](CC(=O)O)NC1=O)NC(=O)[C@H](C)NC(=O)[C@H](CC(=O)O)NC2=O (stereo partly drawn) [I-424, Ac-PL3-Asp-Ala-B5-Asp-Glu-Ala-Ala-Phe-Asn-S8-Phe-BztA-Gln-NH2]
4 | 2.01 | 50 | 50 | 45 (≈ 82.2 µg/mL) |  |  | CC(=O)N1CCC[C@]12CC=CCCCC1(CCCC=CCCCCCC[C@@](C)(C(=O)N[C@@H](Cc3ccccc3)C(=O)N[C@@H](Cc3csc4ccccc34)C(=O)N[C@@H](CCC(N)=O)C(N)=O)NC(=O)[C@H](CC(N)=O)NC(=O)[C@H](Cc3ccccc3)NC(=O)[C@H](C)NC(=O)[C@H](C)NC(=O)[C@H](CCC(=O)O)NC(=O)[C@H](CC(=O)O)NC1=O)NC(=O)[C@H](C)NC(=O)[C@H](CC(=O)O)NC2=O (stereo partly drawn) [I-425, Ac-PL3-Asp-Ala-B5-Asp-Glu-Ala-Ala-Phe-Asn-S8-Phe-BztA-Gln-NH2]

Continued, molecule first:

Row | SMILES | CHI Log D (CHI Log D procedure) | IC50 [1, 2] [nM] | IC50 ([1]; read-out: FP EC50) [nM] | Solubility (Solubility in PBS) [µM] | chromatographic logD (CHI Log D procedure) | Solubility (Solubility in PBS; Solubility (uM)) [µM]
5 | CC(=O)N1CCC[C@]12CC=CCCCC1(CCCC=CCCCCCC[C@@](C)(C(=O)N[C@@H](Cc3ccccc3)C(=O)N[C@@H](Cc3csc4ccccc34)C(=O)N[C@@H](CCC(N)=O)C(N)=O)NC(=O)[C@H](CCC(N)=O)NC(=O)[C@H](Cc3ccccc3)NC(=O)[C@H](C)NC(=O)[C@H](C)NC(=O)[C@H](CCC(=O)O)NC(=O)[C@H](Cc3nn[nH]n3)NC1=O)NC(=O)[C@H](C)NC(=O)[C@H](CC(=O)O)NC2=O (stereo partly drawn) [I-415, Ac-PL3-Asp-Ala-B5-tetz-Glu-Ala-Ala-Phe-Gln-S8-Phe-BztA-Gln-NH2] | 2.125 | 2200 | 2200 | 45 (≈ 83.9 µg/mL) |  | 
6 | CC(=O)N1CCC[C@]12CC=CCCCC1(CCCC=CCCCCCC[C@@](C)(C(=O)N[C@@H](Cc3ccccc3)C(=O)N[C@@H](Cc3csc4ccccc34)C(=O)N[C@@H](Cc3c[nH]cn3)C(N)=O)NC(=O)[C@H](CCC(N)=O)NC(=O)[C@H](Cc3ccccc3)NC(=O)[C@H](C)NC(=O)[C@H](C)NC(=O)[C@H](CCC(=O)O)NC(=O)[C@H](CC(=O)O)NC1=O)NC(=O)[C@H](C)NC(=O)[C@H](CC(=O)O)NC2=O (stereo partly drawn) [I-418, Ac-PL3-Asp-Ala-B5-Asp-Glu-Ala-Ala-Phe-Gln-S8-Phe-BztA-His-NH2] | 2.089 | 149 | 149 | 32 (≈ 59.2 µg/mL) |  | 
7 | CC(=O)N1CCC[C@]12CC=CCCCC1(CCCC=CCCCCCC[C@@](C)(C(=O)N[C@@H](Cc3ccccc3)C(=O)N[C@@H](Cc3csc4ccccc34)C(=O)N[C@@H](Cc3c[nH]cn3)C(N)=O)NC(=O)[C@H]([C@@H](C)O)NC(=O)[C@H](Cc3ccccc3)NC(=O)[C@H](C)NC(=O)[C@H](C)NC(=O)[C@H](CCC(=O)O)NC(=O)[C@H](CC(=O)O)NC1=O)NC(=O)[C@H](C)NC(=O)[C@H](CC(=O)O)NC2=O (stereo partly drawn) [I-420, Ac-PL3-Asp-Ala-B5-Asp-Glu-Ala-Ala-Phe-Thr-S8-Phe-BztA-His-NH2] |  | 128 |  |  | 2.16 | 24 (≈ 43.8 µg/mL)
8 | CC(=O)N1CCC[C@]12CC=CCCCC1(CCCC=CCCCCCC[C@@](C)(C(=O)N[C@@H](Cc3ccccc3)C(=O)N[C@@H](Cc3csc4ccccc34)C(=O)N[C@@H](Cc3c[nH]cn3)C(N)=O)NC(=O)[C@H](CC(N)=O)NC(=O)[C@H](Cc3ccccc3)NC(=O)[C@H](C)NC(=O)[C@H](C)NC(=O)[C@H](CCC(=O)O)NC(=O)[C@H](CC(=O)O)NC1=O)NC(=O)[C@H](C)NC(=O)[C@H](CC(=O)O)NC2=O (stereo partly drawn) [I-421, Ac-PL3-Asp-Ala-B5-Asp-Glu-Ala-Ala-Phe-Asn-S8-Phe-BztA-His-NH2] | 2.087 | 99 | 99 | 36 (≈ 66.1 µg/mL) |  | 
9 | CC(=O)N1CCC[C@]12CC=CCCCC1(CCCC=CCCCCCC[C@@](C)(C(=O)N[C@@H](Cc3ccsc3)C(=O)N[C@@H](Cc3csc4ccccc34)C(=O)N[C@@H](CCC(N)=O)C(N)=O)NC(=O)[C@H](CCC(N)=O)NC(=O)[C@H](Cc3ccccc3)NC(=O)[C@H](C)NC(=O)[C@H](C)NC(=O)[C@H](CCC(=O)O)NC(=O)[C@H](CC(=O)O)NC1=O)NC(=O)[C@H](C)NC(=O)[C@H](CC(=O)O)NC2=O (stereo partly drawn) [I-426, Ac-PL3-Asp-Ala-B5-Asp-Glu-Ala-Ala-Phe-Gln-S8-3Thi-BztA-Gln-NH2] | 1.959 | 109 | 109 | 33 (≈ 61 µg/mL) |  | 
10 | CC(=O)N1CCC[C@]12CC=CCCCC1(CCCC=CCCCCCC[C@@](C)(C(=O)N[C@@H](Cc3ccsc3)C(=O)N[C@@H](Cc3csc4ccccc34)C(=O)N[C@@H](CCC(N)=O)C(N)=O)NC(=O)[C@H](CCC(N)=O)NC(=O)[C@H](Cc3ccccc3)NC(=O)[C@H](C)NC(=O)[C@H](C)NC(=O)[C@H](CCC(=O)O)NC(=O)[C@H](CC(=O)O)NC1=O)NC(=O)[C@H](C)NC(=O)[C@H](CC(=O)O)NC2=O (stereo partly drawn) [I-427, Ac-PL3-Asp-Ala-B5-Asp-Glu-Ala-Ala-Phe-Gln-S8-3Thi-BztA-Gln-NH2] | 1.985 | 38.5 | 38.5 | 50 (≈ 92.4 µg/mL) |  | 
11 | CC(=O)N1CCC[C@]12CC=CCCCC1(CCCC=CCCCCCC[C@@](C)(C(=O)N[C@@H](Cc3cccs3)C(=O)N[C@@H](Cc3csc4ccccc34)C(=O)N[C@@H](CCC(N)=O)C(N)=O)NC(=O)[C@H](CCC(N)=O)NC(=O)[C@H](Cc3ccccc3)NC(=O)[C@H](C)NC(=O)[C@H](C)NC(=O)[C@H](CCC(=O)O)NC(=O)[C@H](CC(=O)O)NC1=O)NC(=O)[C@H](C)NC(=O)[C@H](CC(=O)O)NC2=O (stereo partly drawn) [I-428, Ac-PL3-Asp-Ala-B5-Asp-Glu-Ala-Ala-Phe-Gln-S8-2Thi-BztA-Gln-NH2] |  | 60 |  |  | 1.99 | 14 (≈ 25.9 µg/mL)
